The record followed here is PubChem BioAssay (NCI).

SMILES strings stand for the structures. Where “and” joins values, the source holds several entries; their conditions need not be identical. Identical values can stand only once.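 1) Cells in 96-well plates. 2) Compound, 48 h, 5 concentrations. 3) Linear interpolation between surrounding doses. 4) Unreached endpoint = highest concentration. Abbreviation: GI50, concentration required for 50% inhibition of growth. TGI is the concentration that stops growth completely.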

Assay in all cases: NCI tumour cell line growth inhibition, 48 h
For assay [1], the system named is HOP-62 NSCLC.
Assay [2] relates to MDA-MB-435.
Assay [3] deals with MOLT-4 leukemia.
In assay [4] the test system is NCI-H226 lung.
Assay [5] has as its system RXF 393 renal.
Assay [6] concerns SF-295 CNS.
Assay [7] has as its system SK-MEL-28 melanoma.
Assay [8] has as its system SK-MEL-5 melanoma.
The subject of assay [9] is SK-OV-3 ovarian.
In assay [10] the test system is CAKI-1 renal.

On to `Cc1cccc(NC(=O)CC(=O)N2N=C(N3c4ccccc4Sc4ccccc43)CC2c2ccccc2)c1` (stereo unspecified), for which the TGI in [1], in assay [2], in assay [3], in assay [4], in assay [5] and in assay [6] was above 100 µM in each case. In addition, the TGI in assay [7], in assay [8] and in assay [9] was above 100 µM in each case.

`COc1ccc(N2C(=O)C3c4[nH]c5ccc(C)cc5c4C4CCC(C(C)C)CC4C3C2=O)cc1` (stereo unspecified): the TGI in [10], in assay [1], in assay [2], in assay [3], in assay [4] and in assay [6] was above 100 µM each time. Further, the TGI in assay [7], in assay [8] and in assay [9] was above 100 µM in each case.

Turning to `Cc1ccc2ccccc2c1CC1S(=O)(=O)OCCOS1(=O)=O`, the TGI in assay [10] turned out to be 24.4 µM; in [1], 28.5 µM; in assay [2], 22 µM; in assay [3] it was 27.5 µM; in [6], 27.4 µM; in assay [7] it was 32.8 µM. In assay [8], this compound showed a TGI of 26.4 µM.

Turning to `NC1=NS(=O)(=O)N=C(N)C1=Cc1ccc([N+](=O)[O-])o1`, the TGI came out at 40.7 µM in assay [3]; 53.7 µM in assay [4]; 32.8 µM in assay [5]; 61.8 µM in assay [6]; 29.5 µM in [7]; 28.6 µM in assay [8]. The TGI in [9] was above 100 µM.

With `[N-]=[N+]=NC1(c2ccccc2)C(=O)Nc2ccccc2C1=O` (stereo unspecified), the TGI was above 100 µM in assay [10]; above 100 µM in assay [1]; 44.1 µM in [2]; 76.6 µM in assay [3]; 75.9 µM in assay [5]; above 100 µM in assay [6]. Moreover, the TGI in assay [7] was above 100 µM; in assay [8] it was 33.1 µM; in assay [9], above 100 µM.

On to `CCOC(=O)CCC(NC(=O)OCc1ccccc1)C(=O)NNC(=O)OC(C)(C)C` (stereo unspecified), for which the TGI in [10], in [1], in [2], in assay [3], in assay [5] and in assay [6] was above 100 µM each time. Besides, the TGI in assay [7], in assay [8] and in assay [9] was above 100 µM in each case.

`O=c1c(Cc2ccc(Cl)cc2)nnc2sc(-c3ccc([N+](=O)[O-])cc3)nn12`: the TGI in assay [10] is above 100 µM; in assay [1], above 100 µM; in [2] it was 58.5 µM; in [3], above 100 µM; in [5] it was 74.1 µM; in assay [6] it was above 100 µM. In assay [9], this compound yielded a TGI above 100 µM.

In the case of `c1ccc(C2=NN3CN(N2)c2ccccc2OCCCOc2ccccc23)cc1`, the TGI in assay [1], in assay [3], in assay [4], in assay [5], in assay [6] and in assay [7] was above 100 µM throughout. In assay [8], this compound came in with a TGI above 100 µM.

`Cc1nc2c(n1Cc1ccc(Cl)cc1)C(=O)c1ccccc1C2=O`: the TGI in [1], in [3], in [4], in [5], in assay [6] and in [7] was above 75 µM in each case. The TGI in assay [8] and in [9] was above 75 µM in each case.

For `CC1(C)CC(=O)C(/C=N/c2nc(-c3ccc(Br)cc3)cs2)=C(O)C1`, the TGI in [10] is 63.3 µM; in assay [1] it was above 100 µM; in [2] it was 76.5 µM; in [3], above 100 µM; in assay [4] it was above 100 µM; in [6] it was above 100 µM. Also, the TGI in [7], in [8] and in [9] was above 100 µM each time.

Consider `CC(C)(CN1CCCCC1)C(=O)CC(SCCS(=O)(=O)O)c1ccc(Br)cc1` (stereo unspecified), for which the TGI was determined as 7.2 µM in [10]; 18 µM in assay [1]; 7.62 µM in [3]; 8.75 µM in [4]; 2.71 µM in [5]; 16.7 µM in [6]. The results for the TGI in assay [7] and in [8] were 8.7 µM and 3.32 µM, respectively.

On to `O=C1CCC2(CC1)Cc1ccccc1C2O` (stereo unspecified), for which the TGI in assay [10], in [1], in [3], in [4], in assay [6] and in assay [7] was above 100 µM in each case. Further, the TGI in [8] and in assay [9] was above 100 µM in each case.

`CCCCCCCCCCCCCCCCOCC(CC(F)(F)P(=O)(O)O)OC(C)=O` (stereo unspecified): the TGI in assay [10], in [1], in assay [2], in [3], in assay [4] and in assay [6] was above 50 µM each time. For the same compound, the TGI in assay [7], in assay [8] and in assay [9] was above 50 µM in each case.

In the case of `COc1cc2c3c(n(CCCNCCO)c(=O)c2cc1OC)-c1cc2c(cc1C3=O)OCO2`, the GI50 in assay [1] is 0.0127 µM and 0.0979 µM; in assay [2], 0.528 µM and 1.34 µM; in [4] it was 0.0474 µM; in assay [5], 0.139 µM and 0.268 µM; in [6], below 0.0188 µM; in assay [9], 0.603 µM and 0.663 µM. Also, the TGI is 0.0279 µM in [3]; 1.46 µM and 0.269 µM in assay [4]; 1.26 µM and 5.75 µM in assay [5]; 1.29 µM and 4.27 µM in [6]; 1.51 µM and 1.56 µM in [8]; 2.15 µM and 19 µM in assay [9].

Regarding `Cc1ccc(S(=O)(=O)C(C#N)c2nc3ccccc3nc2-n2cccn2)cc1` (stereo unspecified), the TGI in assay [3], in assay [4], in assay [6], in assay [7] and in [9] was above 100 µM in each case.

As to `Oc1ccc(-c2c3c(nc4c2CCc2ccc(Br)cc2-4)-c2cc(Br)ccc2CC3)cc1`, the TGI in assay [10] was found to be 33 µM; in assay [1], 33.6 µM; in assay [2], 45 µM; in assay [4], 48 µM; in assay [6] it was 31.7 µM; in [7], 38.9 µM. Further, the TGI in assay [8] is 35.7 µM; in assay [9], 30.6 µM.
